Our source for the selectivity ratio and minimal effective dose values is patent EP4786459A1, “BENZENE RING-CONTAINING COMPOUND HAVING ANALGESIC EFFECT, PREPARATION METHOD THEREFOR, AND USE THEREOF” (West China Hospital, Sichuan University, priority 2023, dated 2025).

SMILES strings stand for the structures. A value given as a limit tells only on which side of the number the result lay.

Data set [1] can be described thus: Loss of tail withdrawal reflex (LOTWR) in rats, single intravenous injection, dose escalation: potent analgesic effect and severe adverse reactions. Type of data set: in vivo, SD rats. The settings on record: rat, in vivo, single intravenous injection, minimum dose resulting in serious adverse reactions / minimum effective dose, class symbol, read-out: The safety therapeutic index. The protocol:
(§1) Using the loss of tail withdrawal reflex (LOTWR) in rats as an indicator, the potent analgesic effect of the compounds according to the present invention was evaluated.
(§2) 1.1 Experimental animals: Adult male SD rats weighing between 220-300 g were selected for the experiment. The rats were housed in sawdust-bedded cages with a temperature of 25±1°C, humidity ranging from 40% to 60%, and a 12-hour light/12-hour dark cycle. Each cage contained no more than 5 rats, with free access to water and food.
(§3) • (1) The compound of the present invention, along with the positive control drug remifentanil and the negative control (vehicle), were administered in fixed volumes. A dose escalation approach was employed to determine the minimum effective dose at which the compound of the present invention produces potent analgesic effects, as well as the minimum dose at which severe adverse reactions first appear. • (2) LOTWR lasting for 30 seconds was used as the criterion for generating potent analgesic effects. During the experiment, drugs were administered via the tail vein of rats, with a dosage volume of 0.6 mL per rat and a dosage rate of 0.02 mL/s. Subsequently, an alligator clip was applied at a distance of 1 cm from the base of the rat's tail, clamping once longitudinally and once transversely before being left in place. Meanwhile, the distal end of the alligator clip was continuously oscillated (30 times/min) to continuously generate stimulation. […] When all results were "no LOTWR" after 10 minutes of testing (5 trials), the test was stopped and recorded as "ineffective." • (3) All compounds would undergo a dose escalation for efficacy evaluation, starting from 1 mg/kg (due to the high potency of remifentanil, the lowest dose was set at 1 µg/kg), followed by 5 mg/kg, 10 mg/kg, 20 mg/kg, and so on (increasing by 20 mg/kg increments after 20 mg/kg). The dose escalation would be stopped when rats show signs of death, and the lowest effective dose and the lowest dose at which severe adverse reactions occur would be recorded throughout the process. In this study, severe adverse reactions are defined as apnea, generalized tonic rigidity, convulsions, opisthotonus, seizures, etc.
(§4) 1.3 Evaluation indicators: the minimum effective dose; the minimum dose resulting in serious adverse reactions; the safety therapeutic index = "the minimum dose resulting in serious adverse reactions" / "the minimum effective dose".

A further data set deals with rats. The description is as above. Format: in vivo, SD rats. As to conditions: Rattus norvegicus, single intravenous injection (tail vein), LOTWR lasting for 30 seconds as criterion, class symbol, read-out: The minimum effective dose. The protocol: as §1, §2, §3, §4

Regarding `Cc1ccc(CNC(=N)NCc2ccnn2C)c(N(C)C)c1` [Example 111], the selectivity ratio in data set [1] is ≤ 2. In the data set with rats, the minimal effective dose is ≤ 10 mg/kg.
The corresponding values for `Cc1ccc(CNC(=O)NCc2ccnn2C)cc1N(C)C` [Example 112] are > 4 and ≤ 10 mg/kg.
The corresponding values for `Cc1cc(CNC(=O)NCc2ccc(C)c(N(C)C)c2)n(C)n1` [Example 113] are > 4 and 10 to 20 mg/kg.
As for `CCCCc1ccc(CNC(=S)Nc2cccs2)c(N(C)C)c1` [Example 114], the selectivity ratio in data set [1] was 2 to 4. In the data set with rats, the minimal effective dose was ≤ 10 mg/kg.
As for `Cc1cc(CNC(=S)NCc2ccc(C)c(N(C)C)c2)n(C)n1` [Example 115], the selectivity ratio in data set [1] is > 4. The minimal effective dose in the data set on rats is ≤ 10 mg/kg.
The corresponding values for `Cc1ccc(CNC(=S)NCc2ccnn2C)cc1N(C)C` [Example 116] are 2 to 4 and ≤ 10 mg/kg.
Consider `Cc1ccc(CNC(=O)NCc2cc(C)nn2C)c(N(C)C)c1` [Example 117], for which, in data set [1], the selectivity ratio lay in the range of 2 to 4. Besides, the minimal effective dose in the data set with rats is > 30 mg/kg.
Consider `CN(C)c1cc(C(C)(C)C)ccc1CNC(=S)NCc1cccs1` [Example 118], for which the selectivity ratio in data set [1] is ≤ 2. The minimal effective dose with rats was ≤ 10 mg/kg.
For `CN(C)c1cc(C2CC2)ccc1CNC(=S)NCc1cccs1` [Example 119] the same measures were ≤ 2 and ≤ 10 mg/kg.
As to `CCCCc1ccc(CNC(=O)NCc2ccco2)cc1N(C)C` [Example 120], the selectivity ratio in data set [1] was > 4. Moreover, the minimal effective dose with rats is ≤ 10 mg/kg.
As to `Cc1ccc(CSC(=S)OCc2ccsc2)c(N(C)C)c1` [Example 121], in data set [1], the selectivity ratio lay within 2 to 4. Besides, the minimal effective dose in the data set with rats was > 30 mg/kg.
On to `Cc1ccc(NC(=S)NCc2cccs2)c(N(C)C)c1` [Example 122], for which the selectivity ratio in data set [1] is > 4. The minimal effective dose with rats is ≤ 10 mg/kg.
